Source: the NIST ThermoML archive (doi:10.1016/j.fluid.2013.07.008)

Assay: xn = mol fraction of the nth substance listed
Conditions: Capillary rise

CC [ethane] + C
Conditions	surface tension liquid-gas [mN/m]
93.15 K, x2 = 0	32.9
133.15 K, x2 = 0	25.32
133.15 K, x2 = 0.194	20.74
133.15 K, x2 = 0.414	16.34
133.15 K, x2 = 0.527	14.45
133.15 K, x2 = 0.821	10.78
173.15 K, x2 = 0	18.26
173.15 K, x2 = 0.133	15.59
173.15 K, x2 = 0.139	15.37
173.15 K, x2 = 0.256	12.87
173.15 K, x2 = 0.421	9.8
173.15 K, x2 = 0.429	9.6
173.15 K, x2 = 0.459	9.07
173.15 K, x2 = 0.565	7.67
173.15 K, x2 = 0.587	7.14
173.15 K, x2 = 0.684	5.98
173.15 K, x2 = 0.691	5.79
173.15 K, x2 = 0.793	4.51
173.15 K, x2 = 0.818	4.29
173.15 K, x2 = 0.821	4.25
193.15 K, x2 = 0	15.01
193.15 K, x2 = 0.134	12.26
193.15 K, x2 = 0.16	11.62
193.15 K, x2 = 0.284	9.34
193.15 K, x2 = 0.287	9.07
193.15 K, x2 = 0.395	7.34
193.15 K, x2 = 0.501	5.47
193.15 K, x2 = 0.672	3.49
193.15 K, x2 = 0.685	3.23
213.15 K, x2 = 0	11.79
213.15 K, x2 = 0.024	11.22
213.15 K, x2 = 0.116	9.57
213.15 K, x2 = 0.17	8.6
213.15 K, x2 = 0.238	7.28
213.15 K, x2 = 0.447	4.11
213.15 K, x2 = 0.539	2.71
233.15 K, x2 = 0	8.77
233.15 K, x2 = 0.075	7.19
233.15 K, x2 = 0.143	6.06
233.15 K, x2 = 0.153	5.89
233.15 K, x2 = 0.214	4.93
233.15 K, x2 = 0.228	4.7
233.15 K, x2 = 0.292	3.63
233.15 K, x2 = 0.297	3.55
233.15 K, x2 = 0.362	2.74
233.15 K, x2 = 0.369	2.58
253.15 K, x2 = 0	5.77
253.15 K, x2 = 0.048	5.17
253.15 K, x2 = 0.099	4.4
253.15 K, x2 = 0.145	3.73
253.15 K, x2 = 0.196	2.98
253.15 K, x2 = 0.241	2.34
253.15 K, x2 = 0.242	2.28
263.15 K, x2 = 0	4.48
263.15 K, x2 = 0.048	3.82
263.15 K, x2 = 0.098	3.15
263.15 K, x2 = 0.142	2.58
263.15 K, x2 = 0.185	2.03
273.15 K, x2 = 0	3.2
273.15 K, x2 = 0.035	2.76
273.15 K, x2 = 0.083	2.19
273.15 K, x2 = 0.124	1.75
283.15 K, x2 = 0	1.96
283.15 K, x2 = 0.017	1.82
283.15 K, x2 = 0.045	1.5
283.15 K, x2 = 0.065	1.33
283.15 K, x2 = 0.067	1.29

C [methane] + CC
x1 = 1
Conditions	surface tension liquid-gas [mN/m]
93.15 K	16.69
133.15 K	8.78
173.15 K	2
